For this test, the system named is monocistronic NK5.1 HCV replicon in Huh7 cells. Kind of test: HCV replicon assay, monocistronic replicon cell line. The format is cell-based, hepatitis C virus. The conditions noted are these: Hepatitis C virus, Huh-7, 72 h; Table 1; monocistronic replicon in Huh7 cells, 3 days incubation, HCV RNA/GAPDH RNA by TaqMan RT-PCR; read-out: Mono EC50 Median. The text has this: HCV Replicon Assays (Replicon EC50 (μM))
HCV replication can be measured by a replicon assay such as described by Vrolijk et al, J. Virol. Methods 110:201(2003), which is hereby incorporated in its entirety by reference. The method was implemented as follows.
Monocistronic Replicon Cell Line:
Human hepatocyte Huh7 cells containing the monocistronic NK5.1 replicon were obtained from Ralf Bartenschlager at the University of Mainz, Germany. These cells were maintained under hygromycin selection and passaged when 80-90% confluent.
This cell line contains an autonomously replicating RNA element (replicon) incorporating the non-structural HCV elements necessary for replication, and upon which the survival of the replicon in the cell depends. This replicon contains a single internal ribosome entry site (HCV IRES). Inhibition of any of the critical HCV finctions by a compound leads to loss of the replicon as measured by HCV replicon RNA copy number reduction. The amount of HCV RNA present following a standard incubation with a compound is a measure of the anti-HCV activity of the compound. The assay was conducted by preparing sufficient 96-well plates containing these cells, wherein cells are seeded at 6000 cells/well in a 96-well plate, in 200 μl of final media volume. Cells were then incubated for 24 hours at 37 C., 5% CO2, and 95% humidity before compound was added. Six point half-log concentration response assays were conducted to determine potency/EC50 of Formula I compounds to inhibit HCV replicon replication. The final percent DMSO acceptable in this assay system is 0.6%. Compounds were diluted in media in an appropriate format and 5 μl of each drug dilution is added to each well. Cells were then incubated with compounds for 3 days at 37 C., 5% CO2, and 95% humidity. Following the three day incubation period, plates were washed twice with phosphate buffered saline to remove media and cells were lysed with Qiagen extraction buffer. RNA was extracted and isolated with the Qiagen RNAeasy kit according to the manufacturer's protocol (Qiagen). TaqMan One-Step RT-PCR was used in conjunction with an ABI 7700 Sequence Detector (Applied Biosystems) for the quantitation and analysis of HCV replicon RNA copy number. A GAPDH probe was used for internal normalization. The ratio of HCV RNA to cellular GAPDH RNA was determined and compared to the DMSO-only treated control, and the ratio of HCV RNA/GAPDH RNA was used for an EC50 determination and as a measure of specificity for inhibition of the HCV replicon.
For orientation: A replicon is a self-replicating genome or part of one, used to study replication in cells.

The EC50 is the concentration at which the effect is half-maximal. For `O=C(O)c1cc(-c2ccc3ccccc3c2)nn1-c1ncccc1C(F)(F)F` [Compound 78, 5-Naphthalen-2-yl-2-(3-trifluoromethyl-pyridin-2-yl)-2H-pyrazole-3-carboxylic acid], the EC50 was more than 32 µM.

Consider `O=C(O)c1cc(-c2ccc3ccccc3c2)n(-c2ncccc2C(F)(F)F)n1` [Compound 79, 5-Naphthalen-2-yl-1-(3-trifluoromethyl-pyridin-2-yl)-1H-pyrazole-3-carboxylic acid], for which the concentration giving a half-maximal response (EC50) was more than 32 µM.

`COc1ccc(OCc2ccccc2)c(-c2ccn(-c3ncccc3C(F)(F)F)n2)c1` [Compound 80, 2-[3-(2-Benzyloxy-5-methoxy-phenyl)-pyrazol-1-yl]-3-trifluoromethyl-pyridine]: the concentration for a half-maximal effect (EC50) turned out to be 1.8 µM.

On to `COc1ccc(OCc2ccccc2)c(-c2ccnn2-c2ncccc2C(F)(F)F)c1` [Compound 81, 2-[5-(2-Benzyloxy-5-methoxy-phenyl)-pyrazol-1-yl]-3-trifluoromethyl-pyridine], for which the half-maximal effective concentration (EC50) was 6.2 µM.

As to `COc1ccc(OCc2ccccc2)c(-c2ccn(-c3ccccn3)n2)c1` [Compound 82, 2-[3-(2-Benzvloxy-5-methoxy-phenvl)-pvrazol-1-yl]-pyridine], the EC50 was 4.3 µM.

Regarding `COc1ccc(OCc2ccccc2)c(-c2ccnn2-c2ccccn2)c1` [Compound 83, 2-[5-(2-Benzvloxy-5-methoxy-phenyl)-pvrazol-1-yl]-pyridine], the concentration giving a half-maximal response (EC50) is 31 µM.

For the compound `COc1ccc(O)c(-c2ccn(-c3ccccn3)n2)c1` [Compound 84, 4-Methoxy-2-(1-pyridin-2-yl-1H-pyrazol-3-yl)-phenol], the EC50 was 3.3 µM.

With `COc1ccc(O)c(-c2ccnn2-c2ccccn2)c1` [Compound 85, 4-Methoxy-2-(2-pyridin-2-yl-2H-pyrazol-3-yl)-phenol], the concentration for a half-maximal effect (EC50) was more than 32 µM.

For the compound `COc1ccc(O)c(-c2ccn(-c3ncccc3C(F)(F)F)n2)c1` [Compound 86, 4-Methoxy-2-[1-(3-trifluoromethyl-pyridin-2-yl)-1H-pyrazol-3-yl]-phenol], the EC50 was determined as 7.8 µM.

In the case of `c1ccc(COc2ccc3ccccc3c2-c2ccn(-c3ccccn3)n2)cc1` [Compound 87, 2-[3-(2-Benzyloxy-naphthalen-1-yl)-pyrazol-1-yl]-pyridine], the EC50 is more than 32 µM.

For the compound `COc1ccc(-c2ccn(-c3ccccn3)n2)c(O)c1` [Compound 88, 5-Methoxy-2-(1-pyridin-2-yl-1H-pyrazol-3-yl)-phenol], the EC50 is more than 32 µM.

Regarding `COc1ccc(-c2ccn(-c3ncccc3C(F)(F)F)n2)c(O)c1` [Compound 89, 5-Methoxy-2-[1-(3-trifluoromethyl-pyridin-2-yl)-1H-pyrazol-3-yl]-phenol], the EC50 is 8.8 µM.

As for `COc1ccc(-c2ccn(-c3ncccc3C(F)(F)F)n2)c(OCc2ccccc2)c1` [Compound 90], the 50% effective concentration (EC50) worked out at 4.4 µM.

For the compound `COc1ccc(-c2ccn(-c3ncccc3C)n2)c(O)c1` [Compound 91, 5-Methoxy-2-[1-(3-methyl-pyridin-2-yl)-1H-pyrazol-3-yl]-phenol], the half-maximal effective concentration (EC50) turned out to be 9.1 µM.

In the case of `COc1ccc(-c2ccn(-c3ncccc3C)n2)c(OCc2ccccc2)c1` [Compound 92, 2-[3-(2-Benzyloxy-4-methoxy-phenyl)-pyrazol-1-yl]-3-methyl-pyridine], the EC50 was found to be 5.2 µM.

As to `COc1ccc(O)c(-c2ccn(-c3ncccc3C)n2)c1` [Compound 93, 4-Methoxy-2-[l-(3-methyl-pyridin-2-yl)-1H-pyrazol-3-yl]-phenol], the concentration giving a half-maximal response (EC50) was determined as 9.1 µM.

As for `Cc1c2c(=O)oc3ccccc3c2nn1-c1ccccn1` [Compound 94], the 50% effective concentration (EC50) came out at 8.9 µM.

In the case of `COc1ccc2oc(=O)c3c(C)n(-c4ccccn4)nc3c2c1` [Compound 95], the concentration giving a half-maximal response (EC50) turned out to be 5.8 µM.

`COc1cccc(OCc2ccccc2)c1-c1ccn(-c2ccccn2)n1` [Compound 96, 2-[3-(2-Benzyloxy-6-methoxy-phenyl)-pyrazol-1-yl]-pyridine]: the half-maximal effective concentration (EC50) was determined as 8.6 µM.

On to `Oc1ccc(Br)cc1-c1ccn(-c2ccccn2)n1` [Compound 97, 4-Bromo-2-(1-pyridin-2-yl-1H-pyrazol-3-yl)-phenol], for which the half-maximal effective concentration (EC50) came to 22 µM.

The values are drawn from patent US20050075375A1 (priority 2003, published 2005).
